Patent US6992105B2, “Dipeptide derivatives” (Novartis AG, priority 2001, dated 2006)

What was measured:
[1] = test system: angiotensin I induced pressor response (ACE); test: inhibition of the angiotensin I induced pressor response in normotensive rats; format: in vivo, rat; conditions: 11.8 mg/kg p.o., conscious normotensive rats
Protocol: The in vivo test for i.v. administered compounds is performed with male, normotensive rats, which are conscious. A femoral artery and femoral vein are cannulated respectively for direct blood pressure measurement on i.v. administration of angiotensin I and i.v. or p.o. administration of a compound of this invention. After the basal blood pressure is stabilized, pressor responses to 3 or 4 challenges of 300 ng/kg angiotensin I i.v., at 15-minute intervals, are obtained. Such pressure responses are usually again obtained at 15, 30, 60 and 90 minutes, and then every hour up to 6 hours after i.v. or p.o. administration of the compound to be tested, and compared with the initial responses. Any observed decrease of said pressor response is an indication of ACE inhibition.

[2] = test system: plasma ANF concentration (NEP inhibition); test: effect on rat plasma ANF concentration; format: in vivo; conditions: 11.8 mg/kg p.o., rats infused with ANF 450 ng/kg/min i.v.
Protocol: The effect of the compounds of the invention on rat plasma ANF concentration can be determined as follows:
Male Sprague-Dawley rats (275–390 g) are anesthetized with ketamine (150 mg/kg)/acepromazine (10%) and instrumented with catheters in the femoral artery and vein to obtain blood samples and infuse ANF, respectively. The rats are tethered with a swivel system and are allowed to recover for 24 hours before being studied in the conscious, unrestrained state.
In the assay, plasma ANF levels are determined in the presence and absence of NEP inhibition. On the day of study, all rats are infused continuously with ANF at 450 ng/kg/min. i.v. for the entire 5 hours of the experiment. Sixty minutes after beginning the infusion, blood samples for baseline ANF measurements are obtained (time 0) and the rats are then randomly divided into groups treated with the test compound or vehicle. Additional blood samples are taken 30, 60, 120, 180 and 240 minutes after administration of the test compound.
Plasma ANF concentrations are determined by a specific radioimmunoassay. […] The supernatant is decanted and the pellets counted in a gamma counter. […] Plasma ANF levels are expressed as a percent of those measured in vehicle-treated animals which received ANF alone (450 ng/kg/min. i.v.)

[3] = test system: spontaneously hypertensive rat (SHR); test: anti-hypertensive activity in the spontaneously hypertensive rat (SHR); format: in vivo; conditions: conscious SHR, once daily administration of 11.8 mg/kg p.o.
Description: The anti-hypertensive activity can be determined, e.g., in the spontaneously hypertensive rat (SHR) and the DOCA-salt hypertensive rat, e.g., according to Bazil et al., J. Cardiovasc. Pharmacol., Vol. 22, pp. 897–905 (1993) and Trapani et al., J. Cardiovasc. Pharmacol., Vol. 14, pp. 419–424 (1989), respectively.

## CCOC(=O)[C@H](COCc1ccccc1)NC(=O)C(C)(C)NC(=O)[C@@H](SC(C)=O)C(C)C [Example 1(a), N-[2-[(S)-2-Acetylthio-3-methylbutanoylamino]-2-methylpropionyl]-O-benzyl-L-serine ethyl ester]
[1]
  duration of inhibition of the angiotensin I induced pressor response: 6 h
[2]
  increase of plasma ANF levels: about 70%
[3]
  effect on mean arterial pressure: reduces mean arterial pressure
